Laboratory results taken from US20250313563A1, “GLYCOGEN SYNTHASE KINASE 3 INHIBITORS AND USES THEREOF” (The Broad Institute, Inc., priority 2022, published 2025).
pIC50: −log10 of the molar value. Where two headings read alike, the source gives them in different places.

What was measured:
[1] = system: β-catenin nuclear translocation in SH-SY5Y cells; assay: β-catenin translocation assay; assay type: cell-based
Experimental: SH-SY5Y cells were seeded into a 96-well CellCarrier Ultra (Perkin Elmer) plate at a density of 1×10^5 cells/ml in complete DMEM. Sixteen hours following plating, media was changed to DMEM with 2% serum, and compound was added with a D300e Digital Dispenser (Tecan) for an incubation time of six hours. After compound incubation, media was removed, and cells were fixed with 4% PFA for 10 minutes at room temperature. Each well was washed three times with PBS-T and then blocked with buffer (1×PBS with 5% Normal Goat Serum and 0.3% Triton X-100) for 30 minutes at room temperature. β-Catenin primary antibody (Cell Signaling #8480) was added at 1:500 dilution in blocking buffer and the cells were allowed to incubate in primary overnight at 4° C. The following day, primary antibody was removed, each well was washed three times with PBS-T, and secondary antibody (1:2000 anti-rabbit AlexaFluor Plus 488 and 1:10,000 Hoechst 33342) was added and allowed to incubate for 60 minutes at room temperature protected from light. After one-hour, secondary antibody was removed and wells were washed four times with PBS-T before imaging on the Opera Phenix. Sixteen fields per well were imaged with a 20× water lens.
Images were quantified in the Columbus Image Data Storage and Analysis software. Cells were identified using the Hoechst nuclear stain to identify individual nuclei. Intensity of the nuclear stain was also used to determine cell viability (Viable cells <30% CV of Hoechst Intensity)

human GSK3β = human GSK3β (Homo sapiens (Human), UniProt P49841); assay: pThr231 tau phosphorylation plate-based assay in HEK-huTau cells transfected with GSK3β; assay type: cell-based; settings: GSK3β IC50 undetermined due to toxicity
human GSK3β, sequence (P49841 whole entry): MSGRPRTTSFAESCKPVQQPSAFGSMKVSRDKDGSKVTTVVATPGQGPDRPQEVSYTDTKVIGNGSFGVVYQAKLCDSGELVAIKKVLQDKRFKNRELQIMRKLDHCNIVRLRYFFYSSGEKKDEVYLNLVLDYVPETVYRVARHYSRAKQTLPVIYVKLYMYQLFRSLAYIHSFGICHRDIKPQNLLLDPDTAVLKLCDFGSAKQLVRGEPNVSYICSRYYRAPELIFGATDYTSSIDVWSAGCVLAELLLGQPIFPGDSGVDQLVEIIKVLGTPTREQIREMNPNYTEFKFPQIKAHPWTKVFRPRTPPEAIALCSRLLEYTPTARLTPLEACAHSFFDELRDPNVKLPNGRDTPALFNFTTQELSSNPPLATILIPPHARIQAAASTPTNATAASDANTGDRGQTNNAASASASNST
Experimental: HEK293 or SH-SY5Y cells were obtained from American Type Culture Collection (ATCC, Manassas, VA) and cultured in Dulbecco's modified Eagle's medium (DMEM) supplemented with 10% fetal bovine serum (FBS), 10 units/ml penicillin, and 10 μg/ml streptomycin (all reagents were purchased from Gibco, Waltham, MA). Cell cultures were maintained in a humidified 5% (v/v) CO2/air environment at 37° C. When the cells reached 50-80% confluence, they were transfected with a complex consisting of a 3:1 ratio of FuGENE 6 Transfection Reagent (Promega, Madison, WI) and plasmid DNA. Plasmid DNA was balanced out across reactions using an empty plasmid so that the same amount of DNA was added per well. This transfection complex was prepared following the manufacturers protocol and added directly to the cell media for 24 or 48 hours prior to lysis.
293T cells stably expressing human 2N4R Tau were transfected with appropriate cDNA plasmids. 24 hours following transfection cells were treated with compound in a 10-point dose-response (from 1000× stocks of compound) and lysates harvested 2 hours later with cell extraction buffer (Life Technologies Cat #BN0001) or RIPA Buffer with Halt protease/phosphatase inhibitors added.
For pThr231 assay: Lysate was diluted 1:100 in assay buffer and Total Tau and pTau T231 was assessed by plate-based ELISA as per manufacturer instructions (MSD Cat #K15121D-1). Total fluorescence was measured using an Envison plate reader.
To test the potency and isoform selectivity of GSK3 small molecule inhibitors, HEK-huTau cells were transfected with plasmids containing either human GSK3α or GSK3β. Twenty-four hours after transfection, compounds were added at a 10-point dose response curve (at a range of 30 μM-3 nM) for a total of 2 hours, and cell lysates were probed for total tau and pThr231 using a plate-based assay.

[2] = target: GSK3α (GST-full length GSK3α) (Homo sapiens (Human), UniProt P49840); assay: GSK3α TR-FRET kinase assay; assay type: biochemical; settings: GMean, geometric mean
GSK3α (GST-full length GSK3α), sequence (P49840 whole entry): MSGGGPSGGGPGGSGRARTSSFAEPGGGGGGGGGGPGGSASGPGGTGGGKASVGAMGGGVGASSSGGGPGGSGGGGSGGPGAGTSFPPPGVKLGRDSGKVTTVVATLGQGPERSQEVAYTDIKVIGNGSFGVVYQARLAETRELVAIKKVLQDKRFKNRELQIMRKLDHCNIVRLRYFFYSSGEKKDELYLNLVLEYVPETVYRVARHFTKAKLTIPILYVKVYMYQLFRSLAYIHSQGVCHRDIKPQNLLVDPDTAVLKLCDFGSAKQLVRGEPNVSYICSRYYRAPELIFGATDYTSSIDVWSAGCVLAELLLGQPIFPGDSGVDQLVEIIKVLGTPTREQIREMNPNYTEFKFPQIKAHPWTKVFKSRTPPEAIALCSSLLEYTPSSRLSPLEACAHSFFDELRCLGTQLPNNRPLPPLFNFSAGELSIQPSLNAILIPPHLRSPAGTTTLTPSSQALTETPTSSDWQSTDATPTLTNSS
Summary of the method: (§1)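 IC50 came from the normalized 665/615 nm TR-FRET ratio plotted against log compound concentration. The Tb-labelled pSer641 antibody and streptavidin-d2 detected phosphorylation of biotinylated S645-primed glycogen synthase peptide (200 nM) by 1 nM full-length GST-kinase. ATP was 4 μM for α, 2 μM for β, or 1 mM.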

[3] = target: GSK3b (GST-full length GSK3b) (Homo sapiens (Human), UniProt P49841); assay: GSK3b TR-FRET kinase assay; assay type: biochemical; settings: GMean, geometric mean
GSK3b (GST-full length GSK3b), sequence (P49841 whole entry): as the sequence (P49841 whole entry) above
Summary of the method: as §1

[4] = Microsomal stability (MIC), mouse; assay type: in vitro ADME, mouse (CD-1); settings: mouse liver microsomes; for half-life at 1 μM: CD-1, read-out: Microsome stability (mouse), in vitro T1/2
Experimental: (§2) Stability of compound in liver microsomes was tested in duplicate by incubating compound at 1 μM for 60 minutes at 37° C. Compound level at 60 minutes was compared to level at 0 minutes, and percent remaining was calculated. Assay Parameters
(§3) Available species: human and mouse (CD-1). Compound requirements: 5 μL of a 10 mM DMSO solution. Incubation time: 60 minutes at 37° C. Test Concentration: 1 μM.
(§4) Microsomes with NADPH without compound-matrix interference. Microsomes plus compound without NADPH—non-enzymatic instability.

[5] = Microsomal stability (MIC), human; assay type: in vitro ADME; settings: human liver microsomes
Experimental: as §2, §3, §4

[6] = GSK3-A (TR-FRET 1 mM ATP), IC50, 1 mM ATP
[7] = GSK3-B (TR-FRET 1 mM ATP), IC50, 1 mM ATP
[8] = read-out: GSK3-A (TR-FRET 1 mM ATP), IC50, 1 mM ATP
[9] = read-out: GSK3-B (TR-FRET 1 mM ATP), IC50, 1 mM ATP

| SMILES | pIC50 [2, 6] | pIC50 [3, 7] | half-life at 1 μM [4] | pIC50 [2, 8] | pIC50 [3, 9] | Microsome stability (mouse); in vitro T1/2 [4] | other results |
| --- | --- | --- | --- | --- | --- | --- | --- |
| N#Cc1ccc2[nH]c(O)c(-c3ccc(CN4CCOCC4)cn3)c2c1 [AZ1080, AZD1080, reference compound] |  |  |  |  |  |  | pIC50 ([1]; Homo sapiens, SH-SY5Y cells, 6 hours): 5.52 |
| CC[C@@]1(c2ccccc2)C2=C(CC(C)(C)CC2=O)Nc2[nH]ncc21 [BRD0705, reference compound] |  |  |  |  |  |  | window between potency on tau phosphorylation by GSK3α and concentrations affecting β-catenin stabilization ([1]; HEK-huTau GSK3α vs SH-SY5Y β-catenin): > 5 fold; toxicity of compound in HEK-huTau assay (doses) (human GSK3β): > 30 µM |
| Cc1[nH]nc2c1C1(CN(S(=O)(=O)CC3CC3)C1)C1=C(CC(C)(C)CC1=O)N2 [Compound 107828] | ≥ 7.00 | 6.00 to 7.00 | 6.49 min |  |  |  |  |
| CC(C)(C)Cc1[nH]nc2c1C1(CN(S(=O)(=O)CC3CC3)C1)C1=C(CC3(CCC3)CC1=O)N2 [Compound 107829] |  |  |  | 5.30 to 6.00 | 6.00 to 7.00 | 2.084 min | Microsome stability (human); in vitro T1/2 [5]: 8.877 min |
| CC(C)(C)Cc1[nH]nc2c1C(C)(c1cccc(S(=O)(=O)CC3CC3)c1)C1=C(CC(C)(C)NC1=O)N2 (centres unmarked) [Compound 108005] |  |  |  | 6.00 to 7.00 | 6.00 to 7.00 | 0.69 min |  |
| COc1cncc(F)c1-c1cccc([C@]2(C)C3=C(CC(C)(C)CC3=O)Nc3n[nH]c(CC(C)(C)C)c32)c1 [Compound 108954] | 5.30 to 6.00 | 6.00 to 7.00 | 8.59 min |  |  |  |  |
| CC1(C)CC(=O)C2=C(C1)Nc1n[nH]c(C3CC3)c1C21CN(S(=O)(=O)CC2CC2)C1 [Compound 109152] | 6.00 to 7.00 | 6.00 to 7.00 | 0.97 min |  |  |  |  |
| CC(C)(C)Cc1[nH]nc2c1C(C)(c1cccc(S(C)(=O)=O)c1)C1=C(CC(C)(C)CC1=O)N2 (centres unmarked) [Compound 114687] |  |  |  | 6.00 to 7.00 | ≥ 7.00 | 6.4 min | Microsome stability (human); in vitro T1/2 [5]: 12.3 min |
